Test results published in patent publication US20120157401A1, “METHODS FOR TREATING NEUROFIBROMATOSIS” (PTC Therapeutics, Inc., priority 2009, published 2012).

System: hypoxia-inducible endogenous VEGF expression
Assay: Hypoxia-inducible endogenous VEGF expression ELISA in HeLa cells, dose-response EC50 (Table 3)
Assay type: cell-based, human
Details: HeLa cells, hypoxic conditions (1% O2), 24-48 hours, VEGF in conditioned media; read-out: ELISA EC50
Method in brief: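 HeLa cells kept 24-48 h under hypoxia (1% O2, 5% CO2, nitrogen balance) with or without compound, e.g. seven concentrations; secreted VEGF in conditioned medium quantified by ELISA against a standard curve. Parallel Cell Titer Glo viability under identical conditions excludes cytotoxicity.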

SMILES	EC50 [µM]
O=C(Oc1ccc(Cl)cc1)N1CCc2c([nH]c3ccc(Br)cc23)C1c1ccc(C(F)(F)F)cc1 (centres unmarked) [Compound 570]	< 0.008

Same assay, conditions: Homo sapiens, HeLa, read-out: ELISA EC50 μM

SMILES	EC50 [µM]
O=C(Oc1ccc(Cl)cc1)N1CCc2c([nH]c3ccc(Cl)cc23)C1c1ccc(OCCCN2CCC(O)CC2)cc1 (centres unmarked) [Compound 1537]	< 0.008
COCCCNCCCCOc1ccc(C2c3[nH]c4ccc(Cl)cc4c3CCN2C(=O)Oc2ccc(Cl)cc2)cc1 (centres unmarked) [Compound 701]	0.008 to 0.04
CC(C)NCCCCOc1ccc(C2c3[nH]c4ccc(Cl)cc4c3CCN2C(=O)Oc2ccc(Cl)cc2)cc1 (centres unmarked) [Compound 700]	0.008 to 0.04
COCCCNCCCCOc1ccc(C2c3[nH]c4ccc(Cl)cc4c3CCN2C(=O)Oc2ccc(F)cc2)cc1 (centres unmarked) [Compound 737]	0.008 to 0.04
O=C(Oc1ccc(F)cc1)N1CCc2c([nH]c3ccc(Cl)cc23)C1c1cccc(OCCCN2CCSCC2)c1 (centres unmarked) [Compound 1117]	0.008 to 0.04
COc1ccc(C2c3[nH]c4ccc(Cl)cc4c3CCN2C(=O)Oc2ccc(Cl)cc2)cc1OCCN1CCOCC1 (centres unmarked) [Compound 1095]	0.2 to 1
O=C(Oc1ccc(Cl)cc1)N1CCc2c([nH]c3ccc(Cl)cc23)C1c1ccc(OCCCN2CCOCC2)cc1 (centres unmarked) [Compound 894]	< 0.008
O=C(Oc1ccc(Cl)cc1)N1CCc2c([nH]c3ccc(Cl)cc23)[C@@H]1c1ccc(OC2CCN(CC[C@H](O)CO)CC2)cc1 [Compound 1703]	0.2 to 1
O=C(Oc1ccc(F)cc1)N1CCc2c([nH]c3ccc(Cl)cc23)C1c1ccc(OCCCCNCCO)cc1 (centres unmarked) [Compound 735]	< 0.008
O=C(Oc1ccc(Cl)cc1)N1CCc2c([nH]c3ccc(Cl)cc23)C1c1ccc(OCCCN2CCCCC2)cc1 (centres unmarked) [Compound 433]	< 0.008
COc1ccc(OC(=O)N2CCc3c([nH]c4ccc(Cl)cc34)C2c2ccc(OCCC3CCCN3C)cc2)cc1 (centres unmarked) [Compound 1005]	0.2 to 1
CC(=O)N1CCN(CCCOc2ccc(C3c4[nH]c5ccc(Cl)cc5c4CCN3C(=O)Oc3ccc(F)cc3)cc2)CC1 (centres unmarked) [Compound 988]	< 0.008
O=C(Oc1ccc(Cl)cc1)N1CCc2c([nH]c3ccc(Cl)cc23)C1c1ccc(OCCCN2CCN(CCO)CC2)cc1 (centres unmarked) [Compound 942]	0.008 to 0.04
CC(=O)N1CCN(CCCOc2cccc(C3c4[nH]c5ccc(Cl)cc5c4CCN3C(=O)Oc3ccc(F)cc3)c2)CC1 (centres unmarked) [Compound 1364]	0.04 to 0.2

Same assay, conditions: Homo sapiens; HeLa cells, hypoxic conditions (1% O2), 24-48 hours, VEGF in conditioned media; read-out: ELISA EC50

SMILES	EC50 [µM]
O=C(Oc1ccccc1Cl)N1CCc2c([nH]c3ccc(Cl)cc23)C1c1ccc(Cl)cc1 (centres unmarked) [Compound 589]	0.04 to 0.2
COC(=O)NCC(O)COc1ccc(C2c3[nH]c4ccc(Cl)cc4c3CCN2C(=O)Oc2ccc(Cl)cc2)cc1 (centres unmarked) [Compound 848]	< 0.008
COCC(=O)NCC(O)COc1ccc(C2c3[nH]c4ccc(Cl)cc4c3CCN2C(=O)Oc2ccc(Cl)cc2)cc1 (centres unmarked) [Compound 1225]	0.008 to 0.04
O=C(Oc1ccc(Cl)cc1)N1CCc2c([nH]c3ccc(Cl)cc23)C1c1ccc(OC(CO)CO)cc1 (centres unmarked) [Compound 1231]	0.008 to 0.04
O=C(Oc1ccc(F)cc1)N1CCc2c([nH]c3ccc(Cl)cc23)C1c1cccc(OCCCn2cncn2)c1 (centres unmarked) [Compound 1155]	0.04 to 0.2
COc1ccc(C2c3[nH]c4ccc(Cl)cc4c3CCN2C(=O)Oc2ccc(F)cc2)cc1F (centres unmarked) [Compound 1195]	0.008 to 0.04
C=CC(=O)Nc1ccc(C2c3[nH]c4ccc(Cl)cc4c3CCN2C(=O)Oc2ccc(Cl)cc2)cc1 (centres unmarked) [Compound 500]	0.04 to 0.2
Cc1ccc(OC(=O)N2CCc3c([nH]c4ccc(Cl)cc34)C2c2ccc(OCCCn3ccnc3)cc2)cc1 (centres unmarked) [Compound 900]	< 0.008
COc1ccc(OC(=O)N2CCc3c([nH]c4ccc(Cl)cc34)C2c2ccc(OCCCn3cncn3)cc2)cc1 (centres unmarked) [Compound 888]	< 0.008
COc1ccc(OC(=O)N2CCc3c([nH]c4ccc(Cl)cc34)C2c2ccc(OCC[C@H](O)CO)cc2)cc1 (some centres unmarked) [Compound 1181]	< 0.008
Cc1ccc(OC(=O)N2CCc3c([nH]c4ccc(Cl)cc34)[C@@H]2c2ccc(OCCC(O)Cn3cncn3)cc2)cc1 (some centres unmarked) [Compound 1291]	0.008 to 0.04
O=C(Oc1ccc(Cl)cc1)N1CCc2c([nH]c3ccc(Cl)cc23)[C@@H]1c1ccc(OC[C@H](O)CO)cc1 [Compound 1223]	< 0.008
O=C(COc1ccc(C2c3[nH]c4ccc(Cl)cc4c3CCN2C(=O)Oc2ccccc2)cc1)Oc1ccccc1 (centres unmarked) [Compound 366]	> 1
O=C(Oc1ccc(F)cc1)N1CCc2c([nH]c3ccc(Cl)cc23)C1c1ccc(OCCCCn2cncn2)cc1 (centres unmarked) [Compound 743]	< 0.008
COc1cc(C2c3[nH]c4ccc(Cl)cc4c3CCN2C(=O)Oc2ccccc2)ccc1OCCCn1ccnn1 (centres unmarked) [Compound 1144]	0.04 to 0.2
COc1ccc(C2c3[nH]c4ccc(Cl)cc4c3CCN2C(=O)Oc2ccc(Cl)cc2)cc1OCCCCn1cncn1 (centres unmarked) [Compound 1091]	0.2 to 1
O=C(Oc1ccc(Cl)cc1)N1CCc2c([nH]c3ccc(Cl)cc23)C1c1ccc(OCC2CO2)cc1 (centres unmarked) [Compound 460]	0.008 to 0.04
CC1(C)OC[C@H](CCOc2ccc(C3c4[nH]c5ccc(Cl)cc5c4CCN3C(=O)Oc3ccccc3)cc2)O1 (some centres unmarked) [Compound 1168]	< 0.008
O=C(Oc1ccc(Cl)cc1)N1CCc2c([nH]c3ccc(Cl)cc23)[C@H]1c1ccc(OCCCn2ccnn2)cc1 [Compound 1069]	< 0.008
COc1ccc(OC(=O)N2CCc3c([nH]c4ccc(Cl)cc34)C2c2ccc(OCCCn3nccn3)cc2)cc1 (centres unmarked) [Compound 1134]	< 0.008
O=C1OCC(COc2ccc(C3c4[nH]c5ccc(Cl)cc5c4CCN3C(=O)Oc3ccc(Cl)cc3)cc2)O1 (centres unmarked) [Compound 421]	< 0.008
O=C(Oc1ccc(F)cc1)N1CCc2c([nH]c3ccc(Cl)cc23)C1c1ccc(OCCCCl)cc1 (centres unmarked) [Compound 712]	< 0.008

Same assay, conditions: Homo sapiens; HeLa cells, hypoxic conditions (1% O2), VEGF ELISA of conditioned media; read-out: ELISA EC50

SMILES	EC50 [µM]
N#CCOc1ccc(C2c3[nH]c4ccc(Cl)cc4c3CCN2C(=O)Oc2ccc(Cl)cc2)cc1 (centres unmarked) [Compound 1520]	< 0.008
O=C(Oc1ccc(Cl)cc1)N1CCc2c([nH]c3ccc(Cl)cc23)[C@@H]1c1ccc(Oc2ccc3ccccc3n2)cc1 [Compound 1572]	< 0.008
N#Cc1cn(CCOc2ccc(C3c4[nH]c5ccc(Cl)cc5c4CCN3C(=O)Oc3ccc(F)cc3)cc2)nc1N (centres unmarked) [Compound 1441]	0.008 to 0.04
CCC(CO)(CO)COc1ccc(C2c3[nH]c4ccc(Br)cc4c3CCN2C(=O)Oc2ccc(Cl)cc2)cc1 (centres unmarked) [Compound 1358]	< 0.008
COc1ccc(OC(=O)N2CCc3c([nH]c4ccc(Cl)cc34)[C@@H]2c2ccc(OCC(C)(CO)CO)cc2)cc1 [Compound 1337]	0.008 to 0.04
CCOC(=O)NCC(O)CCOc1ccc([C@H]2c3[nH]c4ccc(Cl)cc4c3CCN2C(=O)Oc2ccc(C)cc2)cc1 (some centres unmarked) [Compound 1643]	< 0.008
CCC(CO)(CO)COc1ccc([C@H]2c3[nH]c4ccc(Cl)cc4c3CCN2C(=O)Oc2ccc(Cl)cc2)cc1 [Compound 1329]	< 0.008
[H]/N=c1\scnn1CCOc1ccc(C2c3[nH]c4ccc(Cl)cc4c3CCN2C(=O)Oc2ccc(Cl)cc2)cc1 (centres unmarked) [Compound 1420]	< 0.008
CCS(=O)(=O)NCC(O)COc1ccc(C2c3[nH]c4ccc(Cl)cc4c3CCN2C(=O)Oc2ccc(Cl)cc2)cc1 (centres unmarked) [Compound 1565]	0.008 to 0.04
CCS(=O)(=O)NCC(O)CCOc1ccc([C@H]2c3[nH]c4ccc(Cl)cc4c3CCN2C(=O)Oc2ccc(Cl)cc2)cc1 (some centres unmarked) [Compound 1638]	< 0.008
O=C(NCC(O)CCOc1ccc([C@H]2c3[nH]c4ccc(Cl)cc4c3CCN2C(=O)Oc2ccc(Cl)cc2)cc1)c1ccccn1 (some centres unmarked) [Compound 1629]	< 0.008

System: HT1080 cells
Assay: Cell cycle analysis by propidium iodide flow cytometry in HT1080 cells (percent cells in S-phase, Table 24)
Assay type: cell-based, human
Details: HT1080 cells, 100 nM, 18 hours, normoxic; DMSO control […]
Description: Experimental Design. […] After treatment, cells were trypsinized, and stained with propidium iodide (PI) dye to measure DNA content of individual cells by flow cytometry. Output comprised histograms showing relative DNA content in 10,000 cells.
While compounds which cause greater than 20% of the cells to accumulate in S-phase at 100 nM are considered active, a larger percentage of cells may be accumulated in S-phase at lower doses depending on the Compound, as shown in FIG. 12 for example.

SMILES	% Cells In S-Phase [%]
O=C(Oc1ccc(Cl)cc1)N1CCc2c([nH]c3ccc(Cl)cc23)[C@@H]1c1ccc(OCC[C@H](O)CO)cc1 [drawing 529]	20.0
COc1ccc([C@H]2c3[nH]c4ccc(Cl)cc4c3CCN2C(=O)Oc2ccc(Cl)cc2)cc1 [drawing 526]	26.1
O=C(Oc1ccc(Cl)cc1)N1CCc2c([nH]c3ccc(Cl)cc23)C1c1ccc(OCCN2CCCCC2)cc1 (centres unmarked)	16.8
COc1ccc([C@@H]2c3[nH]c4ccc(Cl)cc4c3CCN2C(=O)Oc2ccc(Cl)cc2)cc1	16.8
O=C(Oc1ccc(F)cc1)N1CCc2c([nH]c3ccc(Cl)cc23)[C@H]1c1ccc(OCCCn2ccnn2)cc1	16.4
COc1ccc(OC(=O)N2CCc3c([nH]c4ccc(Br)cc34)[C@H]2c2ccc(Cl)cc2)cc1	16.5
COc1ccc(C2c3[nH]c4ccc(Cl)cc4c3CCN2C(=O)Oc2ccc(Cl)cc2)cc1 (centres unmarked)	15.3
O=C(Oc1ccc(Cl)cc1)N1CCc2c([nH]c3ccc(Cl)cc23)[C@H]1c1ccc(OCC[C@H](O)CO)cc1 [drawing 538]	17
O=C(Oc1ccc(Cl)cc1)N1CCc2c([nH]c3ccc(Cl)cc23)C1c1ccc(OCCN2CCOCC2)cc1 (centres unmarked) [drawing 535]	16.4
O=C(Oc1ccc(F)cc1)N1CCc2c([nH]c3ccc(Cl)cc23)[C@@H]1c1ccc(OCCCn2ccnn2)cc1	25.7
C=CCOc1ccc([C@H]2c3[nH]c4ccc(Cl)cc4c3CCN2C(=O)Oc2ccc(Cl)cc2)cc1 [drawing 533]	17.2
COc1ccc(OC(=O)N2CCc3c([nH]c4ccc(Br)cc34)[C@@H]2c2ccc(Cl)cc2)cc1 [drawing 527]	26.4
O=C(Oc1ccc(F)cc1)N1CCc2c([nH]c3ccc(Cl)cc23)[C@@H]1c1ccc(OCC[C@H](O)CO)cc1 [drawing 537]	20.6
C=CCOc1ccc([C@@H]2c3[nH]c4ccc(Cl)cc4c3CCN2C(=O)Oc2ccc(Cl)cc2)cc1	17.9
